Measurements from patent US9504675B2, “Alpha-ketoheterocycles and methods of making and using” (The Scripps Research Institute, priority 2011, dated 2016).

How the values were obtained:
human FAAH (hFAAH) = target: T1, human FAAH (hFAAH) (Homo sapiens, UniProt O00519); experiment: Enzyme assay: inhibition of human FAAH (lysate of hFAAH-transfected COS-7 cells), 14C-oleamide hydrolysis; type: biochemical; details: for reduction in activity against the human enzyme versus rat FAAH: hFAAH vs rFAAH, active (S)-enantiomers
T1 construct: The full-length human FAAH (hFAAH) was expressed in COS-7 cells; expressed in transfected cells; host or cells: COS-7 (transiently transfected with human FAAH cDNA)
T1 sequence (O00519 1-579): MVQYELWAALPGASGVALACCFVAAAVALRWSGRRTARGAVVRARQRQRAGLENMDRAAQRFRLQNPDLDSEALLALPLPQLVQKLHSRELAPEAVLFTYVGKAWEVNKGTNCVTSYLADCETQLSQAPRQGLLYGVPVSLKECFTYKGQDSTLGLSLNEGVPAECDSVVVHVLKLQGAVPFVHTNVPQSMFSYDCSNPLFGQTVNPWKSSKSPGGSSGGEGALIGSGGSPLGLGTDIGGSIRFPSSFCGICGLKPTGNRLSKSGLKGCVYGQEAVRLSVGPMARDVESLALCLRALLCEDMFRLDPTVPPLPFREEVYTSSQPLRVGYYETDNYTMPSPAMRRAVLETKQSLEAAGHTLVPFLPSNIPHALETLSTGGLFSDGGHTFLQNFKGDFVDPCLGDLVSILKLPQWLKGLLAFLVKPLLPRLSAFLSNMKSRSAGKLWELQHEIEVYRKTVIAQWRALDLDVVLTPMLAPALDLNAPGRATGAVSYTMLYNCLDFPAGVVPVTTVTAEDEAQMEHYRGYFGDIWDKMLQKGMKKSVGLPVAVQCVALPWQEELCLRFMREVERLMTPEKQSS
Procedure: Enzyme assays were performed at 20-23° C. with purified recombinant rat FAAH expressed in Escherichia coli or with solubilized COS-7 membrane extracts from cells transiently transfected with human FAAH cDNA (where specifically indicated) in a buffer of 125 mM Tris/1 mM EDTA/0.2% glycerol/0.02% Triton X-100/0.4 mM Hepes, pH 9.0.
^14C-labeled oleamide was prepared from ^14C-labeled oleic acid. The truncated rat FAAH (rFAAH) was expressed in E. coli and purified. The purified recombinant rFAAH was used in the inhibition assays unless otherwise indicated. The full-length human FAAH (hFAAH) was expressed in COS-7 cells as described, and the lysate of hFAAH-transfected COS-7 cells was used in the inhibition assays where explicitly indicated.
The inhibition assays were performed as follows. […] The enzyme reaction was terminated by transferring 20 μL of the reaction mixture to 500 μL of 0.1 N HCl at three different time points. The ^14C-labeled oleamide (substrate) and oleic acid (product) were extracted with EtOAc and analyzed by TLC as detailed. The Ki of the inhibitor was calculated using a Dixon plot as described (standard deviations are provided in the Supporting Information tables).

[1] = system: endogenous levels of FAAH substrates AEA, PEA, OEA and of 2-AG, AA; experiment: In vivo pharmacodynamic studies: brain and liver lipid levels after inhibitor treatment (LC-MS); set-up: species or system mouse (C57BL/6J)
Procedure: This includes monitoring the effects of the inhibitors on the endogenous levels of the FAAH substrates anandamide (AEA, N-arachidonoyl ethanolamine), N-oleoyl ethanolamine (OEA), and N-palmitoyl ethanolamine (PEA), as well as the key lipids 2-arachidonoylglycerol (2-AG) and arachidonic acid (AA) that are not endogenous substrates for FAAH.
Inhibitors were prepared as a saline-emulphor emulsion for intraperitoneal (i.p.) administration by vortexing, sonicating, and gently heating neat compound directly into an 18:1:1 v/v/v solution of saline:ethanol:emulphor, or as a homogeneous PEG solution for oral administration (p.o.) by vortexing, sonicating, and gently heating neat compound directly into PEG300 (Fluka). Male C57BL/6J mice (<6 months old, 20-28 g) were administered inhibitors in saline-emulphor emulsion or an 18:1:1 v/v/v saline:emulphor:ethanol vehicle i.p. at a volume of 10 μL/g weight, or alternatively inhibitors in PEG300 or a PEG300 vehicle p.o. at a volume of 4 μL/g weight. After the indicated amount of time, mice were anesthetized with isofluorane and killed by decapitation. Total brains (˜400 mg) and a portion of the liver (˜100 mg) were removed and flash frozen in liquid N2.
Tissue was weighed and subsequently Dounce homogenized in 2:1:1 v/v/v CHCl3:MeOH:Tris pH 8.0 (8 mL) containing standards for lipids (50 pmol d4-PEA, 2 pmol d4-AEA, 0.5 nmol ds-2-AG, and 10 nmol pentadecanoic acid). The mixture was vortexed and then centrifuged (1,400×g, 10 min). The organic layer was removed, dried under a stream of N2, resolubilized in 2:1 v/v CHCl3:MeOH (120 μL), and 10 μL of this resolubilized lipid was injected onto an Agilent G6410B QQQ instrument. […] Mobile phase A was composed of a 95:5 v/v H2O:MeOH, and mobile phase B was composed of a 65:35:5 v/v/v i-PrOH:MeOH:H2O. 0.1% Formic acid or 0.1% ammonium hydroxide was included to assist in ion formation in positive and negative ionization mode, respectively. The flow rate for each run started at 0.1 mL/min with 0% B. At 5 min, the solvent was immediately changed to 60% B with a flow rate of 0.4 mL/min and increased linearly to 100% B over 10 min. […] MS analysis was performed with an electrospray ionization (ESI) source. […] For negative polarity, the analysis was performed in MS2 scan mode from 100-1000 m/z. The capillary was set to 4 kV, the fragmentor was set to 100 V, and the delta EMV was set to 0. Lipids were quantified by measuring the area under the peak in comparison to the standards.

[2] = Rat liver microsome stability (rlm t1/2); type: in vitro ADME; details: rat liver microsomes
[3] = Human liver microsome stability (hlm t1/2); type: in vitro ADME; details: human liver microsomes
[4] = target: T2, recombinant rat FAAH (rFAAH) (Rattus norvegicus, UniProt P97612); experiment: Enzyme assay: inhibition of purified recombinant rat FAAH, 14C-oleamide hydrolysis, Ki by Dixon plot; type: biochemical; details: Ki, rFAAH, Table 5, active (S)-enantiomers
T2 construct: The truncated rat FAAH (rFAAH) was expressed in E. coli and purified; made in house; host or cells: Escherichia coli
T2 sequence (P97612 30-579 limits assumed): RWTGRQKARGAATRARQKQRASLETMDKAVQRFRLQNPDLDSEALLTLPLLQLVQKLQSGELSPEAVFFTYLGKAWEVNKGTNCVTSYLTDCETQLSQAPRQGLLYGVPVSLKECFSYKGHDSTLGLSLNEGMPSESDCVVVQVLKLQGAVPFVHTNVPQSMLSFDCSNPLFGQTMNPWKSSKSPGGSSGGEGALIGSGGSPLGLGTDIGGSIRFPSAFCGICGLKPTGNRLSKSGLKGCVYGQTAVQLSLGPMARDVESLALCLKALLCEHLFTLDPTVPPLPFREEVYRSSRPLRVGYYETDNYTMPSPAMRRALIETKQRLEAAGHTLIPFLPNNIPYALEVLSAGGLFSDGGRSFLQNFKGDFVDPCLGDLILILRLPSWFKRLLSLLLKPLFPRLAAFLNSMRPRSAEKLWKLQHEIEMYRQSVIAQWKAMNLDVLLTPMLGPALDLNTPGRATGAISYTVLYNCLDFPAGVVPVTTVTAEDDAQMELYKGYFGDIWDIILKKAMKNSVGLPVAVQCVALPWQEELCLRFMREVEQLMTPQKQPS
Method in brief: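 Hydrolysis of 14C-oleamide at 20-23° C by purified truncated rat FAAH expressed in E. coli or by lysate of COS-7 cells transfected with full-length human FAAH, in 125 mM Tris/1 mM EDTA/0.2% glycerol/0.02% Triton X-100/0.4 mM Hepes, pH 9.0. Reaction stopped in 0.1 N HCl at three time points; substrate and product separated by TLC; Ki from Dixon plot.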

[5] = system: mice, acute thermal pain (tail flick at 52° C.); experiment: Mouse tail flick assay (52° C. warm water), acute thermal pain; type: in vivo, mouse (CD-1); details: i.v. administration
Procedure: Concurrent with these studies, two prototypical inhibitors 12 and 14 were examined for antinociceptive activity in a preclinical model of acute thermal pain (tail flick at 52° C.) in mice alongside 2 and morphine (i.v. administration).
Male CD-1 (25-35 g, Charles River) mice were housed in groups of five in Plexiglas chambers with food and water available ad libitum. All animals were maintained on a 12 h light/dark cycle (lights on at 7:00 AM) in a temperature- and humidity-controlled animal colony. All tail-flick experiments were performed under an approved University of New England animal protocol in accordance with institutional guidelines and in accordance with the Guide for the Care and Use of Laboratory Animals as adopted and promulgated by the National Institutes of Health. Efficacy of the test compound was assessed using the 52° C. warm water tail-flick test. The latency to the first sign of a rapid tail-flick was taken as the behavioral endpoint. Each mouse was first tested for baseline latency by immersing its tail in the water and recording the time to response. Mice not responding within 5 sec were excluded from further testing. Mice were then administered the test compound and tested for antinociception at various time points afterwards. Antinociception was calculated by the following formula: % Antinociception=100×(test latency−control latency)/(10−control latency). A maximum score was assigned (100%) to animals not responding within 10 sec to avoid tissue damage.

[6] = Table 6, 30 mg/kg i.p., 1 h, single mouse
[7] = Table 6, 30 mg/kg i.p., 1 h, single mouse, vs vehicle
[8] = Table 7, i.p. (30 mg/kg), 3 mice per group
[9] = Table 7, i.p. (30 mg/kg), 3 mice per group, vs vehicle
[10] = Table 7, oral (50 mg/kg), 3 mice per group
[11] = Table 7, oral (50 mg/kg), 3 mice per group, vs vehicle

| SMILES | reduction in activity against the human enzyme versus rat FAAH (human FAAH (hFAAH)) | Brain AEA [1, 6] [pmol/g] | Brain PEA [1, 6] [pmol/g] | Liver 2-AG [1, 6] [pmol/g] | Liver AEA [1, 6] [pmol/g] | Liver PEA [1, 6] [pmol/g] | Brain AEA (fold increase) [1, 7] [fold increase] | Brain PEA (fold increase) [1, 7] [fold increase] | Liver 2-AG (fold increase) [1, 7] [fold increase] | Liver AEA (fold increase) [1, 7] [fold increase] | Liver PEA (fold increase) [1, 7] [fold increase] | half-life [2] [min] | half-life [3] [min] | duration of antinociceptive effect [5] [min] | further results |
| --- | --- | --- | --- | --- | --- | --- | --- | --- | --- | --- | --- | --- | --- | --- | --- |
| O=C(CCCCCCc1ccccc1)c1ncc(-c2ccccn2)o1 [Compound 2, reference compound] | no significant distinction | 38 | 540 | 0.28 | 14 | 208 | 4.8 | 5.0 | 0.9 | 7 | 1.6 | 2 to 4 | 2 to 4 | – | increase in brain levels of anandamide ([1]; p.o. 50 mg/kg, 1 h): 11 fold |
| O=C(O)c1cccc(-c2cnc(C(=O)C3CCc4cc(Oc5ccccc5)ccc4C3)o2)n1 (stereo not drawn) [Compound 14, 6-(2-(6-Phenoxy-1,2,3,4-tetrahydronaphthalene-2-carbonyl)oxazol-5-yl)picolinic acid] | 4 fold | 12 | 224 | 0.35 | 10 | 284 | 1.5 | 2.0 | 1.1 | 5 | 2.1 | – | – | 150 | Ki [4]: 25 nM; Ki (human FAAH (hFAAH); Table 5, active (S)-enantiomers): 110 nM; Brain 2-AG [1, 6]: 14 pmol/g; Brain AA [1, 6]: 154 pmol/g; Brain 2-AG (fold increase) [1, 7]: 1.0 fold increase; Brain AA (fold increase) [1, 7]: 0.7 fold increase; Brain 2-AG [1, 8]: 8.5 pmol/g; Brain AEA [1, 8]: 9.0 pmol/g; Brain PEA [1, 8]: 321 pmol/g; Brain AEA (fold increase) [1, 9]: 1.6 fold increase; Brain PEA (fold increase) [1, 9]: 4.5 fold increase; Brain 2-AG [1, 10]: 11.2 pmol/g; Brain AEA [1, 10]: 19.8 pmol/g; Brain PEA [1, 10]: 260 pmol/g; Brain AEA (fold increase) [1, 11]: 3.5 fold increase; Brain PEA (fold increase) [1, 11]: 3.7 fold increase; dose needed for maximal effect relative to morphine [5]: 2 fold; time of maximal antinociceptive effect [5]: 30 to 60 min; maximal antinociceptive effect (efficacy) ([5]; dose-response alongside morphine): same maximal effect (efficacy) observed with morphine |
| O=C(c1ncc(-c2ccccn2)o1)C1CCc2cc(OCc3ccccc3)ccc2C1 (stereo not drawn) [Compound 18, (6-(Benzyloxy)-1,2,3,4-tetrahydronaphthalen-2-yl)(5-(pyridin-2-yl)oxazol-2-yl)methanone] | – | – | – | – | – | – | – | – | – | – | – | 12 to 15 | 12 to 15 | – | – |
| CN1CC[C@]23c4c5ccc(O)c4O[C@H]2[C@@H](O)C=C[C@H]3[C@H]1C5 [morphine, reference compound] | – | – | – | – | – | – | – | – | – | – | – | – | – | 150 | – |
